Like-named read-outs stand apart in the source and are kept apart here.
Key:
HeLa cells = assay: MTT cell viability / cytotoxicity assay, HeLa cells; type: cell-based; conditions: for EC50: Homo sapiens, HeLa
Procedure: (§1) Cells were plated in flat-bottom 96-well plates at a density of 3 × 10^3 cells per well. After 12 h of cell attachment, the cell culture medium was replaced with 100 μL of pre-warmed media containing the compounds at different concentrations. After 24–72 h of incubation, cell proliferation was assessed by the MTT assay. A fresh mixture of 10 μL of thiazolyl blue tetrazolium bromide (MTT) and 90 μL of medium were freshly added to each well. After incubation for 4 h, the medium was gently removed. The formazan crystals that formed were dissolved in 110 μL of DMSO, and the absorbance was subsequently measured with a plate reader (Perkin Elmer) at 490 nm. EC50 values were calculated using Origin software. To measure the cytotoxicity of 2, HeLa cells, HUVECs, Saos-2 cells and CCC-HEH-2 cells were incubated with 100 μL of 1–500 μM 2 for 24 h, and then, cell viability was determined. To measure the cytotoxicity of TCO-Dox or Dox, HeLa cells, HUVECs, Saos-2 cells or CCC-HEH-2 cells were incubated with 200 μL of 0.001–10 μM TCO-Dox or Dox for 72 h, and the cell viability was determined. To determine the cytotoxicity of activated Dox, HeLa cells, HUVECs, […], and then, 2 was removed and 200 μL of 0.0001–10 μM TCO-Dox was added for 72 h of incubation, and cell viability was determined. […]
(§2) Prodrug activation efficacy in cells: Cells were plated on flat bottom 96-well plates at a
(§3) density of 3x10^3 cells per well. After 12 h attachment, cells were incubated with 100 µL
(§4) 500 µM of 2 for 6 h before removing 2 and the addition of 200 µL 0.0001-10 µM of […]

Saos-2 cells = assay: MTT cell viability / cytotoxicity assay, Saos-2 cells; type: cell-based
Procedure: (§5) Cells were plated in flat-bottom 96-well plates at a density of 3 × 10^3 cells per well. After 12 h of cell attachment, the cell culture medium was replaced with 100 μL of pre-warmed media containing the compounds at different concentrations. After 24–72 h of incubation, cell proliferation was assessed by the MTT assay. A fresh mixture of 10 μL of thiazolyl blue tetrazolium bromide (MTT) and 90 μL of medium were freshly added to each well. After incubation for 4 h, the medium was gently removed. The formazan crystals that formed were dissolved in 110 μL of DMSO, and the absorbance was subsequently measured with a plate reader (Perkin Elmer) at 490 nm. EC50 values were calculated using Origin software. To measure the cytotoxicity of 2, HeLa cells, HUVECs, Saos-2 cells and CCC-HEH-2 cells were incubated with 100 μL of 1–500 μM 2 for 24 h, and then, cell viability was determined. To measure the cytotoxicity of TCO-Dox or Dox, HeLa cells, HUVECs, Saos-2 cells or CCC-HEH-2 cells were incubated with 200 μL of 0.001–10 μM TCO-Dox or Dox for 72 h, and the cell viability was determined. To determine the cytotoxicity of activated Dox, HeLa cells, HUVECs, Saos-2 cells or CCC-HEH-2 cells were pre-incubated with 100 μL of 500 μM 2 for 6 h, and then, 2 was removed and 200 μL of 0.0001–10 μM TCO-Dox was added for 72 h of incubation, and cell viability was determined. […]
Prodrug activation efficacy in cells: Cells were plated on flat bottom 96-well plates at a density of 3x10^3 cells per well. After 12 h attachment, cells were incubated with 100 µL 500 µM of 2 for 6 h before removing 2 and the addition of 200 µL 0.0001-10 µM of TCO-Dox. Cells were further incubated for 72 h before measuring the viability by the MTT […]
Clonogenic assay of cells in vitro: Clonogenic assay was performed according to the standard protocol.6 2×10^5 attached cells were treated with 500 µM of 2 for 6 h in culture dishes. Cells were then detached, re-suspended in cultural medium and counted accurately. The cell suspension was diluted into the desired seeding concentration and cells were seeded in 6-well plates at a density of 200 cells per well for CCC-HEH-2 and 400 cells per well for HeLa, Saos-2 and HUVECs. After incubation for 10 days, the cultural medium was removed and cells were rinsed carefully with PBS. 2 mL of a mixture of 6.0% (vol/vol) glutaraldehyde and 0.5% (wt/vol) crystal violet was added and kept for 30 min.
The glutaraldehyde crystal violet mixture was removed carefully. The colonies were rinsed with water and dried in normal air at room temperature. The number of the colonies was counted using a stereomicroscope.
When untreated cells are plated as a single-cell suspension at low densities, they will grow to colonies. The plating efficiency (PE) is the ratio of the number of colonies to the […]
(Supplementary Equation 1)
The number of colonies that arise after treatment of cells, expressed in terms of PE, is called the surviving fraction (SF): […]

CCC-HEH-2 cells = assay: MTT cell viability / cytotoxicity assay, CCC-HEH-2 cells; type: cell-based; conditions: Homo sapiens, read-out: EC50, CCC-HEH-2
Procedure: as §5

HUVECs = assay: MTT cell viability / cytotoxicity assay, HUVECs; type: cell-based; conditions: for EC50: Homo sapiens, HUVEC
Procedure: as §1, §2, §3, §4

[1] = In vitro decaging of TCO-Dox by 2 (UPLC-MS); conditions: TCO-Dox mixed with 2 in 25% acetonitrile in H2O, 37 °C
Procedure: The Tz counterpart prodrug TCO-Dox was prepared according to previously published procedures using the axial tautomer of TCO[27]. After the selection of optimized Tz and TCO, the decaging reactions in our study were further characterized (Fig. 2d). After mixing 2 μL of 10 mM TCO-Dox with 2.5 μL of 20 mM 2 in 25% acetonitrile in H2O at 37 °C, the reaction mixture was analysed by ultra-performance liquid chromatography-mass spectrometry (UPLC-MS) at different time points. […] Similarly, we prepared TCO-caged coumarin (TCO-CMR, see Supplementary Methods for a detailed synthesis protocol)[23]. According to a previously developed fluorescence liberation, the fluorescence of coumarin was restored rapidly in the presence of Tz derivatives (Supplementary Fig. 6).

[2] = UPLC-MS/MS pharmacokinetic analyses in tumour, liver and plasma; type: in vivo, BALB/c nude mice; conditions: i.v. 30 mg kg-1 TCO-Dox
Procedure: For in vivo prodrug activation, mice received an i.v. injection of 50 mg kg^−1 2 and a subsequent 30 mg kg^−1 TCO-Dox after a 2-h interval. After different time intervals, blood samples were collected from the tail veins, and then, the tumours and livers were harvested for UPLC-MS/MS analysis.
UPLC-MS/MS analyses: UPLC-MS/MS metabolomic analyses were performed using a
multiple reaction-monitoring mode (MRM). Data acquisition and processing were performed using LabSolutions version 5 software. Measurements were carried out at
Dox, solvent A consisted of 0.1% formic acid in water and solvent B consisted of 0.1% formic acid in mass spectrometric grade acetonitrile; (2) for compound TCO-Dox, solvent A consisted of 100% water and solvent B consisted of 100% mass spectrometric grade acetonitrile. Injection volume was 2 or 10 L. The mass spectrometer was interfaced with the liquid chromatograph using an electrospray ion source. The nitrogen nebulizing gas flow was set at 10 L min-1 and the drying gas flow at 15 mL min-1. 4500 V were used for the interface voltage. The temperature of the block heater was maintained at 400 °C and the one of the desolvation line at 250 °C. The MRM transitions were
Dox. The collision gas used was argon at 230 kPa. The dwell time was set to 100 msec and the pause time to 3 msec.
Sample preparation: blood samples were collected from the tail vein of mice. Plasma […]

HeLa tumours = assay: Tumour inhibition test, subcutaneous HeLa xenograft; type: in vivo, BALB/c nude mice
Procedure: All animal studies were performed in accordance with the Institutional Animal Use and Care Regulations approved by the National Institutes of Health Clinical Center/Animal Care and Use Committee (NIH CC/ACUC). Athymic female nude mice (5–6 weeks old) were purchased from Beijing Huafukang Bioscience Co., Ltd., and raised in a specific-pathogen-free barrier facility. Tumour-bearing mice were established by subcutaneously injecting a suspension of 10^6 HeLa cells per mouse into the front flank of each nude mouse.
After 14 days, the mice were sacrificed.

COc1cccc2c1C(=O)c1c(O)c3c(c(O)c1C2=O)CC(O)(C(=O)CO)CC3OC1CC(NC(=O)OC2C=CCCCCC2)C(O)C(C)O1 (stereo not shown) [TCO-Dox]
EC50 higher than that of Dox, HeLa cells (HeLa cells; 72 h): ~10 fold | EC50 (HeLa cells; read-out: EC50, HeLa, 72 h cytotoxicity, MTT, Activated Dox: cells pre-incubated with 500 μM 2 for 6 h, then TCO-Dox 72 h): 6.79 µM | EC50 (HeLa cells; read-out: EC50 against HeLa cells, cells pre-incubated with 300 μM 2 for 6 h, then TCO-Dox 72 h): 1.2 µM | EC50 (HeLa cells; read-out: EC50 against HeLa cells, cells pre-incubated with 500 μM 2 for 6 h, then TCO-Dox 72 h): 0.0298 µM | EC50 against HeLa cells with 300 μM 2 higher than with 500 μM 2 (HeLa cells; pre-incubation 6 h, then TCO-Dox 72 h): approximately 40 fold | EC50 ratio CCC-HEH-2/HeLa (HeLa cells; ratio of 72 h EC50 values): 0.908 | EC50 ratio HUVECs/HeLa (HeLa cells; ratio of 72 h EC50 values): 0.855 | EC50 (Saos-2 cells; Homo sapiens, SAOS-2, read-out: EC50, Saos-2): 7.57 µM | EC50 ratio CCC-HEH-2/Saos-2 (Saos-2 cells; ratio of 72 h EC50 values): 0.815 | EC50 ratio HUVECs/Saos-2 (Saos-2 cells; ratio of 72 h EC50 values): 0.767 | EC50 (CCC-HEH-2 cells): 6.17 µM | EC50 higher than that of Dox, HUVECs (HUVECs; 72 h): more than 40 fold | EC50 (HUVECs; read-out: EC50, HUVECs, 72 h cytotoxicity, MTT, Activated Dox: cells pre-incubated with 500 μM 2 for 6 h, then TCO-Dox 72 h): 5.81 µM | EC50 (HUVECs; read-out: EC50 against HUVECs, cells pre-incubated with 300 μM 2 for 6 h, then TCO-Dox 72 h): 0.367 µM | EC50 (HUVECs; read-out: EC50 against HUVECs, cells pre-incubated with 500 μM 2 for 6 h, then TCO-Dox 72 h): 0.272 µM | time to complete liberation of Dox [1]: ≤ 2 min | concentration of TCO-Dox in plasma [2]: relatively high concentration of TCO-Dox remaining in the blood | histological examination of dissected tumours (HE staining) (HeLa tumours; after treatment for 14 days): the HeLa cells remained normal | tumour growth (HeLa tumours; i.v., three courses (day 0, 3, 6), 50 mg kg^−1 2, 30 mg kg^−1 TCO-Dox, 5 mg kg^−1 Dox, or 50 mg kg^−1 2 then 30 mg kg^−1 TCO-Dox after 2 h): rapid growth similar to that observed in the saline control group

Source: paper PMC6261997, “Synergistic enzymatic and bioorthogonal reactions for selective prodrug activation in living systems” (Nature Communications, 2018)
